From patent US11365215B2, “Method for preventing, improving, or treating inflammatory bowel disease” (Research & Business Foundation Sungkyunkwan University, priority 2015, dated 2022)
Entries after “also recorded” stand apart in the source; their conditions may differ. Where two headings read alike, the source gives them in different places. Peptide text beside a SMILES is read from it.

Key:
[1] = system: STZ-induced diabetic retinopathy; assay: Active oxygen in retina of STZ-induced diabetic retinopathy model; assay type: in vivo; details: mice; 0.2 μg into one eye, three times; vs non-treated DR sample
Method: Streptozotocin (STZ) was administered at dose of 50 mg/kg to mice daily for 5 days, and a mouse model having induced diabetic retinopathy was obtained. The experimental group of the mouse model was injected with compound 1.1 (SEQ ID NO: 2), in an amount of 0.2 μg into one eye of the mouse, from the 20th day to 24th days from the administration, three times with two days of interval. After 50 days of administration, a DR sample that was not treated with compound 1.1 (SEQ ID NO: 2) and a DR sample treated with compound 1.1 (SEQ ID NO: 2) were collected.
The collected retina tissues from each mouse group as described above were stained with 5 μM of dihydroethidium and active oxygen rates from each group were measured (FIG. 27B). […] Accordingly, compound 1.1 (SEQ ID NO: 2) of the present invention is effectively used for preventing, alleviating or treating ophthalmic indications such as diabetic retinopathy from the biological experiments using mice.

[2] = system: VEGF; assay: qRT-PCR of VEGF in high-glucose HRMEC cells; assay type: cell-based; details: 30 mM glucose 48 hours, 10 nM and 50 nM
Method: In addition, HRMEC cells were treated with 5.5 mM of glucose for reference group. For experiment group, the HRMEC cells were treated with 30 mM of glucose for 48 hours to induce high blood glucose condition, and simultaneously treated with DMSO, compound 1.1 (SEQ ID NO: 2) (10 nM), and compound 1.1 (SEQ ID NO: 2) (50 nM). Changes in expression of Nox-4, VEGF, VEGFR1, VEGFR2, Ang1, Ang2, Tie-2, EPO, and EPOR proteins were quantitatively measured by qRT-PCR (quantitative RT-PCR). Expression of VEGF precursor as stimulating factor of new blood vessel was reduced by treatment with compound 1.1 (SEQ ID NO: 2) (FIG. 25C).

[3] = target: T1, inflammatory signaling pathway complex mediated by MyD88 and RIP1 (Mus musculus, UniProt P22366+Q60855); assay: Immunoprecipitation/immunoblot of inflammatory signaling pathway complex in LPS-treated BMDM cells; assay type: cell-based; details: 100 pM, 1 nM, 100 nM, then 100 ng/mL LPS
T1 construct: endogenous in cells; host or cells: bone-marrow-derived macrophage (BMDM) cells
T1 sequence (P22366 whole entry): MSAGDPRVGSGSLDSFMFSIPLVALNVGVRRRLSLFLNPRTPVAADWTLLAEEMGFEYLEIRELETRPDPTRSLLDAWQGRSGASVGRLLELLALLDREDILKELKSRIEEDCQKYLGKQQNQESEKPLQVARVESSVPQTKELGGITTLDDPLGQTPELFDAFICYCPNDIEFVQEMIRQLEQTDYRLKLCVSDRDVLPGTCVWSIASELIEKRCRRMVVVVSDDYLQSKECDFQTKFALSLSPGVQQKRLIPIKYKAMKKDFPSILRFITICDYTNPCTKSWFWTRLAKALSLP
T1 sequence (Q60855 whole entry): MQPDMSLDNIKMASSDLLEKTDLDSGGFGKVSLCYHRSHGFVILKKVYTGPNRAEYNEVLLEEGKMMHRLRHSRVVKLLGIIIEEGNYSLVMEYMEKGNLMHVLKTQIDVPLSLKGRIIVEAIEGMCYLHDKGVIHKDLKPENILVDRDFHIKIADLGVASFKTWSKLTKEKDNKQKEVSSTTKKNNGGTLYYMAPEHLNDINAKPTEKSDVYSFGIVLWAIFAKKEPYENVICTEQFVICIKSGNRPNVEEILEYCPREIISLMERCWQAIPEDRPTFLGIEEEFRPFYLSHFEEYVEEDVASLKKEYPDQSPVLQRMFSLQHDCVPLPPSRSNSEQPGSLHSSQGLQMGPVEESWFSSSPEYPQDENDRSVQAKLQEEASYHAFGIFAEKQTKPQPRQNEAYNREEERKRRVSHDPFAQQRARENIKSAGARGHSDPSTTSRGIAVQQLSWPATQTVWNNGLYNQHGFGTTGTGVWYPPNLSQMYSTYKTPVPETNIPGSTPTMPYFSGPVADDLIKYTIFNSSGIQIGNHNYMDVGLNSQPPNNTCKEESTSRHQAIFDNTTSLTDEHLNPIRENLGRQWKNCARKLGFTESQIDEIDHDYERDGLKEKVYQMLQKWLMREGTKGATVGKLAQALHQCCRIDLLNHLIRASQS
Method: Bone-marrow-derived macrophage (BMDM) cells were individually pretreated with compound 1.1 (SEQ ID NO: 2), reference compound 1 (SEQ ID NO: 16), and smaducin-6 at various concentrations of 100 pM, 1 nM, and 100 nM, and then further treated with 100 ng/mL of LPS.

[4] = system: experimental autoimmune encephalomyelitis; assay: MOG-induced experimental autoimmune encephalomyelitis model; assay type: in vivo; details: EAE mice
Method: To confirm the effect of compound 1.1 (SEQ ID NO: 2) on multiple sclerosis, mice (10 weeks old, female) were sensitized with MOG35-55/[…] and PTX and an experimental autoimmune encephalomyelitis mouse model was obtained. Experimental methods were described in Oncotarget, Vol. 7 (2016), No. 13, 15382-15393, which is incorporated herein by reference.
As reference group, 10000 unit of Interferon-beta was hypodermically injected for 25 days, once every other day. Clinical score were measured and presented.

[5] = Tissue distribution after oral administration; assay type: in vivo; details: rat, oral 10 mg/kg
Method: Compound 1.1 (SEQ ID NO: 2) was orally administered to a rat at dose of 10 mg/kg, and after 2 hours and 8 hours, concentrations of compound 1.1 (SEQ ID NO: 2) were measured in the small intestinal tissue, large intestinal tissue, appendix tissue, retrimentum in small intestine and retrimentum in large intestine.

[6] = system: DSS-induced chronic colitis; assay: Histological analyses of colon villi and mucous membranes in DSS-induced chronic colitis model; assay type: in vivo, mice; details: 100 mpk
[7] = system: MAPK signaling pathway proteins (ERK1/2, JNK, p38); assay: Western blot of MAPK signaling pathway protein phosphorylation in LPS-treated BMDM cells; assay type: cell-based; details: 100 pM, 1 nM, 100 nM, LPS 2 hours
Method: BMDM cells were pretreated with DMSO, reference compound 1 (SEQ ID NO: 16), compound 1.1 (SEQ ID NO: 2) and smaducin-6 at various concentrations of 100 pM, 1 nM and 100 nM and then further treated with LPS 2 hours. Thereafter, Western blot analysis was performed.

[8] = system: SBE (TFG-β1 signaling); assay: SBE-Luc reporter assay in Raw 264.7 cells treated with TFG-β1; assay type: cell-based; details: 5 ng/mL TFG-β1 two hours
Method: Specifically, 5×NF-κB-Luc reporter plasmid, SBE-Luc reporter plasmid, and BRE-Luc reporter plasmid were individually transfected into Raw 264.7 macrophage cells. After 24 hours, the cells transfected with the NF-κB-Luc reporter plasmid were treated with 100 ng/mL of LPS, the cells transfected with the SBE-Luc reporter plasmid were treated with 5 ng/mL of TFG-β1, and the cells transfected with the BRE-Luc reporter plasmid were treated with 100 ng/mL of BMP6 for two hours.

[9] = system: MAPK signaling pathway proteins (ERK1/2, JNK, p38); assay: Western blot of MAPK signaling pathway protein phosphorylation in LPS-treated RAW 246.7 cells; assay type: cell-based; details: 100 nM for 30 minutes
Method: RAW 246.7 macrophage cells were pretreated with compound 1.1 (SEQ ID NO: 2), compound 1.2 and reference compound 1 (SEQ ID NO: 16) at a concentration of 100 nM for 30 minutes and then further treated with LPS for 0 hour, 0.5 hour, 1 hour and 2 hours. […] Changes of the concentration upon phosphorylation of each protein were measured by immunoblotting using anti-phosphorylation antibodies.
Specifically, RAW 246.7 macrophage cells were pretreated with DMSO, compound 1.1 (SEQ ID NO: 2) (100 nM), IRAK1/4 inhibitor (25 μM), and smaducin-6 (100 nM) for 30 minutes, and then further treated with LPS (100 ng/ml) for two hours.

Q: With CCCCCCCCCCCCCCCC(=O)N1CCC[C@H]1C(=O)N1CCC[C@H]1C(=O)NCC(=O)N[C@@H](Cc1ccc(O)cc1)C(=O)O [compound 1.1, (S)-3-(4-hydroxyphenyl)-2-(2-((S)-1-((S)-1-palmitoylpyrrolidine-2-carbonyl)pyrrolidine-2-carboxamido)acetamido)propanoic acid] (HELM PEPTIDE1{[CCCCCCCCCCCCCCCC(=O)[*:2]].P.P.G.Y}$$$$V2.0) as the compound, how does the “active oxygen rate in retina tissues (dihydroethidium)” value [1] read?
A: reduced active oxygen rate

Q: And the “expression of VEGF precursor” value [2]?
A: reduced

Q: What about the “formation of inflammatory signaling pathway complex mediated by MyD88 and RIP1” value [3] of the same compound?
A: further disrupted in an increasing dose dependent manner

Q: What about the “changes in body weights” value ([4]; compared to the EAE disease model group) of the same compound?
A: did not have reduced weight

Q: And the “clinical score / treatment effect” value ([4]; hypodermic 1 mg/kg and 40 mg/kg every other day for 25 days, vs interferon-beta 10000 unit)?
A: effective in the treatment for multiple sclerosis; also recorded: the same or greater treatment effect and safety

Q: What about the concentration at 2 h ([5]; appendix tissue, 2 hours, read-out: Concentration in appendix tissue) of the same compound?
A: 22.7 ± 2.56 ng/mL

Q: What about the concentration at 8 h ([5]; appendix tissue, read-out: Concentration in appendix tissue) of the same compound?
A: 48.2 ± 46 ng/mL

Q: And the concentration at 2 h ([5]; large intestinal tissue, 2 hours, read-out: Concentration in large intestinal tissue)?
A: 30 ± 10 ng/mL

Q: What about the concentration at 8 h ([5]; large intestinal tissue, read-out: Concentration in large intestinal tissue) of the same compound?
A: 33.2 ± 28.8 ng/mL

Q: What about the “Concentration in small intestinal tissue” value ([5]; 2 hours) of the same compound?
A: 75 ± 70.2 ng/mL

Q: What about the concentration at 8 h ([5]; retrimentum in large intestine, read-out: Concentration in retrimentum in large intestine) of the same compound?
A: 1280 ± 52.7 ng/mL

Q: And the concentration at 2 h ([5]; retrimentum in small intestine, 2 hours, read-out: Concentration in retrimentum in small intestine)?
A: 1120 ± 217 ng/mL

Q: And the concentration at 8 h ([5]; retrimentum in small intestine, read-out: Concentration in retrimentum in small intestine)?
A: 876 ± 900 ng/mL

Q: What about the concentration at 8 h ([5]; small intestinal tissue, read-out: Concentration in small intestinal tissue) of the same compound?
A: 78.1 ± 59.9 ng/mL

Q: And the “histological damages of large intestinal tissues” value ([6]; DSS-induced chronic colitis model)?
A: alleviated

Q: And the “recovery of the mucous membranes (Alcian blue)” value ([6]; in comparison to non-treated group and sulfasalazine 500 mpk)?
A: greater recovery of the mucous membranes

Q: What about the “phosphorylation of MAPK/ERK signaling pathway proteins (ERK1/2, JNK, p38)” value [7] of the same compound?
A: not related to suppressing phosphorylation

Q: And the “activation of SBE induced by TFG-β1 treatment” value [8]?
A: not inhibited

Q: What about the “phosphorylation of the MAPK signaling pathway proteins (ERK1/2, JNK, p38)” value ([9]; LPS 0, 0.5, 1 and 2 hours) of the same compound?
A: did not inhibit phosphorylation

Q: And the “MAPK signaling pathway / phosphorylation of ERK, JNK, p38” value ([9]; LPS 100 ng/ml two hours)?
A: neither suppressed MAPK signaling pathway nor inhibited phosphorylation of the proteins
